Measurements taken from patent USRE48175E1, “Hydrophobically tagged small molecules as inducers of protein degradation” (Dana-Farber Cancer Institute, Inc., priority 2012, dated 2020).

Columns and labels:
[1] = target: T1, ErbB3(667-1053) protein (Her3) (Homo sapiens, UniProt P21860); experiment: LanthaScreen Eu kinase binding assay (Her3 ATP-site binding); conditions: binding to the ATP-site of Her3
T1 construct: Purified ErbB3(667-1053) protein was obtained from Invitrogen; purchased Invitrogen
T1 sequence (P21860 667-1053): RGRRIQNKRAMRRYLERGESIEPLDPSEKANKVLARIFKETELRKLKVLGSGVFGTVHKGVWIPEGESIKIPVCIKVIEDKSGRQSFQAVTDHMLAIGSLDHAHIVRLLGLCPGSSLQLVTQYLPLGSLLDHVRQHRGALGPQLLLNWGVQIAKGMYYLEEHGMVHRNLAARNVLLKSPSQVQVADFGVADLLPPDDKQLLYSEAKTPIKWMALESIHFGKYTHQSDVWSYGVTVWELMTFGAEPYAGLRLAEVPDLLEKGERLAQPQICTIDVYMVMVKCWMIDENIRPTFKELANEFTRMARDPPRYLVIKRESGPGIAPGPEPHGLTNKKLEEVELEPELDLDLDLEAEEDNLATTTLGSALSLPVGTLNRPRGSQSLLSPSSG
Experimental: To discover chemical starting points for developing Her3 inhibitors, the inventors screened a library of 1,500 kinase-directed compounds using the LanthaScreen™ Eu methodology for compounds that could bind to the ATP-site of Her3. […] See, e.g., Stachlewitz et al., J Pharmacol Exp Ther. (2005) 315:36-41.
FIG. 2 depicts binding affinity data for exemplary compounds of Formula (II). Binding affinity (IC50) was measured by Invitrogen LanthaScreen™ Eu kinase binding assay which is based on the binding and displacement of Alexa Fluor 647 labeled ATP-competitive kinase inhibitor scaffold (Kinase Tracer 178). Binding of the tracer to the kinase is detected using a europium-labeled anti-tag antibody (anti-GST). The binding of both the tracer and antibody to the kinase results in a high degree of FRET (fluorescenece resonance energy transfer) from the europium donor fluorophore to the Alexa Fluor 647 acceptor fluoropore on the kinase tracer. […] This centrifugation step will eliminate spurious data points that can arise on occasion due to any particulates in the product. • (3) Add 5 ul the mixture of ErbB3 protein and Eu-anti-GST to 5 ul test compound solution per well in coming 384 plates. • (4) Add 5 ul tracer 178 at concentration of 39 nM per well. • (5) Incubate for 3 hours at 4° C. and read plate with Perkin Elmer EnVision. […]

[2] = test system: downstream effectors of Her3, such as Erk and Akt; experiment: Phosphorylation of downstream effectors of Her3 (Erk, Akt) in cells; assay type: cell-based; conditions: TX2-62-1 formed inside the cell from TX2-49-1 and TX2-57-1 via oxime formation
Experimental: (§1) Without wishing to be bound by any particular theory, the inventors hypothesize that this lack of inhibition is the result of poor cell penetration of TX2-62-1 due to its high molecular weight (MW=828.5). The inventors tested this hypothesis by designing a strategy whereby the two halves of TX2-62-1 (TX2-49-1 and TX2-57-1) were brought together inside of a cell via oxime formation. See Scheme 1 below.
(§2) PC9 Gefitinib Resistant 4 (GR4) cells were cultured in 60 mm plate with 10% fetal bovine serum (FBS), Roswell Park Memorial Institute medium (RPMI) medium. When the confluence reached 80%, cells were treated with compounds in indicated concentration. After 4 hours, wash cells with medium for three times. Cells were cultured for another 4 hours, followed by 3 times PBS washes. Cells were lysed with lysis buffer (25 mM Tris-HCl pH 7.4, 150 mM NaCl, 1 mM EDTA, 1% NP-40, 5% glycerol, Roche PhosSTOP phosphatase inhibitor cocktail tablets and Roche Complete Protease inhibitor cocktail tablets). […]
(§3) With the spectrophotometer set to 562 nm, zero the instrument on a cuvette filled only with water. Subsequently, measure the absorbance of all the samples with 10 minutes. Subtract the average 562 nm absorbance measurement of the Blank standard replicates from the 562 nm absorbance measurement of all other individual standard and unknown sample replicates. […]

Her3-addicted cells = experiment: Her3-dependent growth / viability of Her3-addicted cells; assay type: cell-based
From the text: as §1
FIG. 3 depicts anti-proliferation data for exemplary compounds of Formula (II). The anti-proliferation assay was carried out by using 96 well white bottom plates. 2000-4000 cells were seeded per well, and the medium volume per well was about 100 ul. Incubate for 3 days after adding and titrating indicated concentration of compounds. The cell viability was test by CellTiter-Glo® Luminescent Assay. In a typical experiment, add 10 ul CellTiter-Glo® reagent per well. Mix and shake the plate for 2 minutes to induce cell lysis at room temperature. Allow the plate to incubate at room temperature for approximately 10 minutes to stabilize luminescent signal. Read plate with Perkin Elmer EnVision. The cell numbers were normalized by the DMSO control. And the EC50s were calculated by GraphPad Prism.

Her3 = target: T2, Her3 (Homo sapiens, UniProt P21860); experiment: Her3 protein degradation in cells; assay type: cell-based
T2 construct: endogenous in cells; host or cells: PC9 GR4
Experimental: as §1, §2, §3

[3] = TX2-62-1 formed inside the cell from TX2-49-1 and TX2-57-1 via oxime formation

T2 sequence (P21860 20-1342): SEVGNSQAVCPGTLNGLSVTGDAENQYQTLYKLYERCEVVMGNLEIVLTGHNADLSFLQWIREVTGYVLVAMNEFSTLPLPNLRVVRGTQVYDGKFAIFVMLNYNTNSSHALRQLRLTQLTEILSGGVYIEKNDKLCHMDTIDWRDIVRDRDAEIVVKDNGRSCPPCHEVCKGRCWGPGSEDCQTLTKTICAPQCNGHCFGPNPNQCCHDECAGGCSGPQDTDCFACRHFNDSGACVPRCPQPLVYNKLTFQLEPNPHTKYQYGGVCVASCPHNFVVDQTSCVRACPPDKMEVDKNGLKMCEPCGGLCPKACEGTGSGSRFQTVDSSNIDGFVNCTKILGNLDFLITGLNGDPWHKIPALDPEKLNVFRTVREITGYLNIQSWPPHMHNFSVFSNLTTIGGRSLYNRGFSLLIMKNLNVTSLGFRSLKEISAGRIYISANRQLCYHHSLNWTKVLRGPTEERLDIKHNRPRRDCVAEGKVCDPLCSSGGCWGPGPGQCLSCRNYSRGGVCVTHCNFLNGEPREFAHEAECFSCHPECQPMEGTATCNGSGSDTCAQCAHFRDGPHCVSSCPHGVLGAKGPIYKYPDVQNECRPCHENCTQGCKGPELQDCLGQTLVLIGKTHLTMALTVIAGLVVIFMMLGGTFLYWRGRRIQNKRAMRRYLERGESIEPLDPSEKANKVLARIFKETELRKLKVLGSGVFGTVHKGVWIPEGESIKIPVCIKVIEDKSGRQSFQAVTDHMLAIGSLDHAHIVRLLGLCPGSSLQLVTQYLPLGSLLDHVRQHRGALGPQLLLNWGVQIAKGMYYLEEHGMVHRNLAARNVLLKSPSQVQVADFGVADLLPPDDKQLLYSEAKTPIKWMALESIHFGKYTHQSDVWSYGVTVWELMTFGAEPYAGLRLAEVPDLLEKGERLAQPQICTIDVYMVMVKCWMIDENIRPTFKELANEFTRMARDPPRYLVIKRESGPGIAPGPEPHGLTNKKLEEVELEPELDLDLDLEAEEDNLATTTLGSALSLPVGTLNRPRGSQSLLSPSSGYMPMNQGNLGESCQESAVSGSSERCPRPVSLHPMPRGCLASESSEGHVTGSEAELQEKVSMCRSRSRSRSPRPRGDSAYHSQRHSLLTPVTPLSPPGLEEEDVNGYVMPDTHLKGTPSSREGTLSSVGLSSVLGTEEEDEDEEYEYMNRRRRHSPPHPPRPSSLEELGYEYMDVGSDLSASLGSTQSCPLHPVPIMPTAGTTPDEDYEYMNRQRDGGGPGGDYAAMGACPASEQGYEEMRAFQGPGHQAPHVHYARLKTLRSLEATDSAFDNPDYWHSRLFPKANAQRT

Structure (SMILES)	Her3 binding [1]	inhibition of Her3-dependent signaling [2]	viability of Her3-addicted cells (Her3-addicted cells; [3])	cell proliferation after washout (Her3-addicted cells; after TX2-62-1 was washed out)	inhibition of Her3-dependent growth (Her3-addicted cells; compound added as preformed molecule)	degradation of Her3 (Her3; [3])	Her3 protein level after washout (Her3; after TX2-62-1 was washed out)
COc1cc(-c2nn(C3CCC(N4CCN(C(C)=O)CC4)CC3)c3ncnc(N)c23)ccc1NC(=O)c1cc2ccccc2n1C (centres unmarked) [KIN001-111, reference compound]	most potent Her3 binder						
C=CC(=O)Nc1cc(-c2nn(C3CCC(N4CCN(C/C(C)=N/OCCNC(=O)CC5C6CC7CC(C6)CC5C7)CC4)CC3)c3ncnc(N)c23)ccc1Oc1ccccc1 (centres unmarked) [TX2-62-1]	maintained potent and covalent Her3 binding ability	inhibition of Her3-dependent signaling	loss of viability of Her3-addicted cells	cell proliferation resumed	did not inhibit Her3-dependent growth	efficient degradation of Her3	Her3 protein was resynthesized
